# Measured values reported in ChEMBL document CHEMBL1157666, “Design, synthesis and biological evaluation of thiazolidinone derivatives as potential EGFR and HER-2 kinase inhibitors” (Bioorg Med Chem, 2010).
# Tests used:
# [1] = molecular target: T1, Receptor tyrosine-protein kinase erbB-2 (Homo sapiens, UniProt P04626); test: biochemical
# Description: (§1) Inhibition of human cloned HER2 autophosphorylation expressed in baculovirus-infected Sf9 cells by solid-phase ELISA
# [2] = molecular target: Epidermal growth factor receptor (Homo sapiens, UniProt P00533); test: biochemical
# Description: Inhibition of cloned EGFR autophosphorylation expressed in baculovirus-infected Sf9 cells by solid-phase ELISA
# [3] = tested on: MCF7; test: cells; conditions: Homo sapiens, MCF7, 48 h
# [4] = molecular target: T1, Receptor tyrosine-protein kinase erbB-2
# Description: as §1
# T1 sequence (P04626 whole entry): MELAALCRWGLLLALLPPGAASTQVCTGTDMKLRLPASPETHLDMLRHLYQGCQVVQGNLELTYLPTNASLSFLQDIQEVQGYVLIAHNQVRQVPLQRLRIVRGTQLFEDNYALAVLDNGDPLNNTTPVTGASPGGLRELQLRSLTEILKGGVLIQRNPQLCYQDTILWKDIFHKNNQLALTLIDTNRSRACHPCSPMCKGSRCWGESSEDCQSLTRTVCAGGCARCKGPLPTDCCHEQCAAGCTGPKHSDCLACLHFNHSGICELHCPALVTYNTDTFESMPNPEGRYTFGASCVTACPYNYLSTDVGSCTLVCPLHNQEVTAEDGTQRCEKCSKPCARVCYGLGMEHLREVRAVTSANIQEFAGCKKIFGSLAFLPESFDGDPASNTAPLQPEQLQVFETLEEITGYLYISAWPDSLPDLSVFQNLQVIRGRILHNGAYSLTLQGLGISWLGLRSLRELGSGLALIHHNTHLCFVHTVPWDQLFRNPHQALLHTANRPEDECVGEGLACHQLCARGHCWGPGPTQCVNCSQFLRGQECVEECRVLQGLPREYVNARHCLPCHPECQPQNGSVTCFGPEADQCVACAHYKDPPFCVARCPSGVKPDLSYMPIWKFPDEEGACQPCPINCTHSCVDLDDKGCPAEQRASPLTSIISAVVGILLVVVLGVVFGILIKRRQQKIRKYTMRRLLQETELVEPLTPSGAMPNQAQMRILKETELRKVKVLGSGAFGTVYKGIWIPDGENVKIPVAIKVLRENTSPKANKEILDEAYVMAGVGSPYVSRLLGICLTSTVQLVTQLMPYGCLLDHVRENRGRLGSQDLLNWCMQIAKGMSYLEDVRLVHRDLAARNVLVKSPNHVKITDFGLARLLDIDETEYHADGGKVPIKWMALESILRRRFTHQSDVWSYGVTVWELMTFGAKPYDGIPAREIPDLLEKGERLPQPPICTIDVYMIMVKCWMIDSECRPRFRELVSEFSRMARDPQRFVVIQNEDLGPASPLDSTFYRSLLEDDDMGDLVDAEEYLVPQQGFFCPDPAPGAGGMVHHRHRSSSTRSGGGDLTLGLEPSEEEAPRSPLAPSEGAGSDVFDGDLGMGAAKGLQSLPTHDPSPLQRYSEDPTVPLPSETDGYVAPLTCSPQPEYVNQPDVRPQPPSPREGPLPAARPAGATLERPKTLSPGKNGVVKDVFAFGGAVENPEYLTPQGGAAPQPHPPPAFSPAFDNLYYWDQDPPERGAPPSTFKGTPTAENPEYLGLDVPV
# Chain of Epidermal growth factor receptor (P00533 whole entry): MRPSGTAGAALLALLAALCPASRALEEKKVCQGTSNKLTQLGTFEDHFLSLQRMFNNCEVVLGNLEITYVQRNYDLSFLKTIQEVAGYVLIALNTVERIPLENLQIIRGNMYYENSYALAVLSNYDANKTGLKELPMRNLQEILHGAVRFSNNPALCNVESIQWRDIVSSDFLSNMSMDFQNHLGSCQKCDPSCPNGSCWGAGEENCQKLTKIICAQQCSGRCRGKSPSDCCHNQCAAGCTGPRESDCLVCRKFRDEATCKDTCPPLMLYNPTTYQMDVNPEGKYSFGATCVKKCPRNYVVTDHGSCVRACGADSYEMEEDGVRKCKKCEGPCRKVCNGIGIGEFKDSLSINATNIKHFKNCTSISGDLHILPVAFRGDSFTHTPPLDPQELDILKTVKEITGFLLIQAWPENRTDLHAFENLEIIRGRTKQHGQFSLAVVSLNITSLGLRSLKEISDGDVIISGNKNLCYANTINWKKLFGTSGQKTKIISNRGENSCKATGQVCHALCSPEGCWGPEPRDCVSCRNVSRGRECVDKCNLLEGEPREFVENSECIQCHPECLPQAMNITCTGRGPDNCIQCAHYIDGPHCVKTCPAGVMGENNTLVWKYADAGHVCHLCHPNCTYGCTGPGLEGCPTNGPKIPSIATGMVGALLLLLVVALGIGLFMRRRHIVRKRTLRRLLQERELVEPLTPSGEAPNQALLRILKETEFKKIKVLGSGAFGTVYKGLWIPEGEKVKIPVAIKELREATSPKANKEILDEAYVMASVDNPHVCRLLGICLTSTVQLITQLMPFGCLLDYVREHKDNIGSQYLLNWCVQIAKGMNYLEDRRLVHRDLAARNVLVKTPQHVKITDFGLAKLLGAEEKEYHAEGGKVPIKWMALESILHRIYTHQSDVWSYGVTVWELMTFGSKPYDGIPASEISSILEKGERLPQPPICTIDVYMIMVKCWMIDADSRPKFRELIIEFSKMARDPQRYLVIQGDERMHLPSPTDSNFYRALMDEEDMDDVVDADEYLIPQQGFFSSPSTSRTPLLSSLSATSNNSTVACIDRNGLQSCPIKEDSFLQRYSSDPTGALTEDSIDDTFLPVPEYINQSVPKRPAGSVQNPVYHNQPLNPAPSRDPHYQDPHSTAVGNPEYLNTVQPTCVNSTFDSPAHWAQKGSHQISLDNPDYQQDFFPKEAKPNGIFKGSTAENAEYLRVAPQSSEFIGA
Structure (SMILES),IC50 [1] [µM],IC50 [2] [µM],IC50 [3] [µM],IC50 [4] [µM]
Cc1cccc(/C=N/NC2=NC(=O)CS2)c1,31.8,23.5,8.19,
O=C1CSC(N/N=C/c2cc(Cl)ccc2O)=N1,1.78,0.56,0.18,
Cc1ccc(/C=N/NC2=NC(=O)CS2)cc1,5.83,,2.05,
O=C1CSC(NN=C2CCC2)=N1,> 50,> 50,46.3,
O=C1CSC(NN=C2CCCCCC2)=N1,47,36,27.6,
O=C1CSC(N/N=C/c2cc(F)ccc2O)=N1,3.59,0.97,0.27,
O=C1CSC(N/N=C/c2ccc([N+](=O)[O-])cc2)=N1,8.46,6.82,2.77,
O=C1CSC(N/N=C/c2cccc(Cl)c2)=N1,14.3,10.8,4.31,
O=C1CSC(N/N=C/c2cccc(O)c2)=N1,27.8,19.3,11.8,
O=C1CSC(NN=C2CCCC2)=N1,> 50,> 50,38.5,
O=C1CSC(N/N=C/c2ccc(Cl)cc2)=N1,2.75,1.94,1.82,
COc1cccc(/C=N/NC2=NC(=O)CS2)c1,45.5,31.2,9.73,
O=C1CSC(N/N=C/c2cccc(F)c2)=N1,21.7,13.5,7.78,
COc1ccc(/C=N/NC2=NC(=O)CS2)cc1,9.17,5.78,3.16,
O=C1CSC(N/N=C/c2ccc(Br)cc2)=N1,2.43,1.72,0.97,
O=C1CSC(N/N=C/c2cc(Br)ccc2O)=N1,,,0.06,0.42
O=C1CSC(NN=C2CCCCCCC2)=N1,31,,18.4,
O=C1CSC(N/N=C/c2cc(Cl)cc(Cl)c2O)=N1,4.51,1.46,1.56,
O=C1CSC(N/N=C/c2cc(Br)cc(Br)c2O)=N1,3.73,1.24,0.62,
O=C1CSC(N/N=C/c2ccc(O)cc2)=N1,6.93,4.71,1.67,
O=C1CSC(N/N=C/c2cccc([N+](=O)[O-])c2)=N1,37.6,26.6,12.6,
O=C1CSC(NN=C2CCCCC2)=N1,> 50,41,32.1,
O=C1CSC(N/N=C/c2cccc(Br)c2)=N1,10.3,7.46,2.42,
O=C1CSC(N/N=C/c2ccc(F)cc2)=N1,3.89,2.18,1.58,
